Experimental data taken from PMC10146957, “Systematic Studies on Anti-Cancer Evaluation of Stilbene and Dibenzo[b,f]oxepine Derivatives” (Molecules, 2023).
Read-outs that look alike come from different tables or passages of the source.

Columns and labels:
[1] = set-up: method as in PMID 29318022; settings: generally well tolerated; cited from earlier work
[2] = tested on: HCT116 cells; assay: MTT cytotoxicity assay, HCT116 cells; assay type: cell-based, human; settings: for IC50: Homo sapiens, HCT-116, 48 h, mean ± SEM; for cell viability (in words): 100 μM, 48 h of treatment
Method: (§1) Cells were cultured in a humidified incubator at 37 °C under 5% CO2. Human colorectal carcinoma (HCT116) cells were grown in McCoy’s 5A Medium (ATCC, Catalog No. 30-2007), human breast adenocarcinoma (MCF-7) and human dermal fibroblasts (HDF-A) cells were maintained in Dulbecco’s Modified Eagle’s Medium (DMEM, Sigma D5546) supplemented with 2 mM L-glutamine. Human embryonic kidney (HEK293) cell line was cultured in Dulbecco’s Modified Eagle’s Medium (DMEM, Gibco 31966-021). All culture media were supplemented with 1% Penicillin-Streptomycin (Sigma-Aldrich, P4333) and 10% fetal bovine serum (Gibco, 10270-106). Cells were sub-cultured at approximately 80–90% confluency to maintain the culture in the logarithmic growth phase.
(§2) Cells were seeded at a 96-well plate at the density of 7 × 10^3 cells per well and allowed to grow for 24 h. Afterward, the medium was aspirated and fresh medium was added (200 μL) with serial dilutions (100 − 10 μM) of tested compounds or DMSO at corresponding concentrations as a control. Following 48 h of incubation, the medium was replaced with phenol red-free medium (100 μL) containing MTT (3-(4,5-dimethylthiazol-2-yl)-2,5-diphenyl-2H-tetrazolium bromide, 0.5 mg/mL) and replaced in the incubator for 4 h. The formed formazan was dissolved in DMSO (100 μL) followed by incubation of the mixture at 37 °C for 10 min. The absorbance was measured at 540 nm. After blank subtraction, the half maximal effective concentration (EC50) was calculated by GraphPad Prism software (GraphPad Software Inc, San Diego, CA, USA).

[3] = MTT cytotoxicity assay, HCT116 cells; assay type: cell-based, human; settings: human, HCT116 cells (human colorectal carcinoma), 100 μM, 48 h of treatment, read-out: cell viability
Method: as §1, §2

[4] = tested on: MCF-7 cells; assay: MTT cytotoxicity assay, MCF-7 cells; assay type: cell-based; settings: Homo sapiens, MCF7, 48 h, mean ± SEM
Method: as §1, §2

[5] = tested on: HDF-A cells; assay: MTT cytotoxicity assay, HDF-A cells; assay type: cell-based; settings: Homo sapiens, HDFa
Method: as §1, §2

[6] = tested on: HEK293 cells; assay: MTT cytotoxicity assay, HEK293 cells; assay type: cell-based; settings: Homo sapiens, 48 h, mean ± SEM
Method: as §1, §2

[7] = tested on: HCT116 cells; assay: Immunofluorescence of microtubular network (anti-α-tubulin 12G10); assay type: cell-based, human; settings: 60 µm of compound, 24 h, anti-α-tubulin staining
Method: Cells were seeded on coverslips at a 24-well plate at a density of 5 × 10^4 cells per well and allowed to grow overnight. Next medium was replaced with a medium containing 60 μM solution of the selected compound and incubated for 24 h. Then, cells were fixed and permeabilized with 100% methanol at −20 °C for 15 min and subsequently washed three times with PBS at room temperature. After 1 h blocking with 3% BSA/PBS at 4 °C, slides were incubated with anti-alpha-tubulin 12G10 primary antibody (Developmental Studies Hybridoma Bank, University of Iowa, Iowa City, IA, USA) (diluted to 2 µg/mL in 3% BSA/PBS) overnight at 4 °C. After 3 × 10 min washing with PBS, slides were incubated with AlexaFluor 555-conjugated secondary antibody (diluted to 50 ng/mL in 3% BSA/PBS) (Thermo Fisher Scientific, Waltham, MA, USA, A31570) for 1 h at room temperature. After washing (3 × 10 min with PBS), slides were mounted in Fluoromount-G (Southern Biotech., Birmingham, AL, USA). Cells were recorded using Leica TCS SP8 (Leica Microsystems, Wetzlar, Germany) confocal microscope.

[8] = tested on: U87 (glioblastoma) cells; set-up: method as in PMID 31865147; settings: cited from earlier work
[9] = tested on: HeLa (cervical cancer) cells; set-up: method as in PMID 31865147; settings: cited from earlier work
[10] = tested on: normal cell lines; set-up: method as in PMID 31865147; settings: cited from earlier work
[11] = MTT, 48 h, mean ± SEM, read-out: HDF-A IC50

melting point | Structure (SMILES) | IC50 [2] | viability at 48 h, 100 µM [3] | IC50 [6] | also measured
212 °C | COc1cccc(O)c1/C=C/c1ccc([N+](=O)[O-])cc1[N+](=O)[O-] | – | – | – | –
216 °C | O=[N+]([O-])c1ccc2c(c1)C=Cc1ccc([N+](=O)[O-])cc1O2 | – | – | – | –
– | COc1ccc(/C=C\c2cc(OC)c(OC)c(OC)c2)cc1OP(=O)(O)O [CA4P/fosbretabulin, combretastatin A-4 phosphate] | – | – | – | side effect [1]: acute but transient hypertension
– | COc1ccc(/C=C/c2ccc([N+](=O)[O-])cc2[N+](=O)[O-])c(O)c1 [Compound 1c, (E)-2-hydroxy-4-methoxy-2′,4′-dinitrostilbene] | 38 ± 5 µM | < 30% | 34 ± 4 µM | IC50 [4]: 43 ± 2 µM; IC50 [5, 11]: 40 ± 4 µM
156 °C | O=[N+]([O-])c1ccc2c(c1)Oc1ccccc1C=C2 [Compound 2a, 3-nitrodibenzo[b,f]oxepine] | – | – | – | –
184 °C | COc1cccc2c1Oc1cc([N+](=O)[O-])ccc1C=C2 [Compound 2b, 6-methoxy-3-nitrodibenzo[b,f]oxepine] | – | – | – | cell viability (in words) [2]: only minimally affected
189 °C | COc1ccc2c(c1)Oc1cc([N+](=O)[O-])ccc1C=C2 [Compound 2c, 3-methoxy-7-nitrodibenzo[b,f]oxepine] | – | – | – | –
167 °C | COc1ccc2c(c1)C=Cc1ccc([N+](=O)[O-])cc1O2 [Compound 2d, 2-methoxy-7-nitrodibenzo[b,f]oxepine] | – | – | – | –
– | COc1cc2c(cc1OC)Oc1cc([N+](=O)[O-])ccc1C=C2 [Compound 2f, 2,3-dimethoxy-7-nitrodibenzo[b,f]oxepine] | – | – | – | cell viability (in words) [2]: only minimally affected
197 °C | O=[N+]([O-])c1ccc2c(c1)Oc1ccc3ccccc3c1C=C2 [Compound 2h, 9-nitrobenzo[b]naphtho[1,2-f]oxepine] | – | – | – | anti-cancer activity compared with HTC116 cells [8]: significantly more active; anti-cancer activity compared with HTC116 cells [9]: significantly more active; activity in normal cell lines [10]: severe activity
164 °C | O=[N+]([O-])c1ccc2c(c1)Oc1cc(O)ccc1C=C2 [Compound 2i, 7-nitrodibenzo[b,f]oxepin-3-ol] | 55 ± 4 µM | < 30% | 88 ± 5 µM | IC50 [4]: 67 ± 6 µM; IC50 [5, 11]: 93 ± 7 µM
133 °C | CC(=O)Oc1ccc2c(c1)Oc1cc([N+](=O)[O-])ccc1C=C2 [Compound 2j, 7-nitrodibenzo[b,f]oxepin-3-yl acetate] | 53 ± 3 µM | < 30% | 85 ± 4 µM | IC50 [4]: 36 ± 3 µM
– | COc1cccc2c1Oc1cc(N)ccc1C=C2 [Compound 3b, 6-methoxydibenzo[b,f]oxepin-3-amine] | – | – | – | cell viability (in words) [2]: only minimally affected
158 °C | COc1ccc2c(c1)C=Cc1ccc(N)cc1O2 [Compound 3d, 8-methoxydibenzo[b,f]oxepin-3-amine] | – | – | – | –
– | COc1cc2c(cc1OC)Oc1cc(N)ccc1C=C2 [Compound 3f, 7,8-dimethoxydibenzo[b,f]oxepin-3-amine] | – | – | – | cell viability (in words) [2]: only minimally affected
172 °C | Nc1ccc2c(c1)Oc1ccc3ccccc3c1C=C2 [Compound 3h, benzo[b]naphtho[1,2-f]oxepin-9-amine] | 66 ± 2 µM | < 30% | 48 ± 3 µM | IC50 ([5]; predicted IC50, above the maximum concentration tested (100 μM), read-out: HDF-A IC50 (predicted)): > 100 µM
145 °C | CC(=O)Oc1ccc2c(c1)Oc1cc(N)ccc1C=C2 [Compound 3j, 7-aminodibenzo[b,f]oxepin-3-yl acetate] | – | – | – | –

Structure (SMILES) | melting point | IC50 [2] | viability at 48 h, 100 µM [3] | IC50 [6] | also measured
O=[N+]([O-])c1ccc(/C=C/c2ccccc2O)c([N+](=O)[O-])c1 [Compound 1a, (E)-2-hydroxy-2′,4′-dinitrostilbene] | 192 °C | 23 ± 1 µM | < 30% | 18 ± 1 µM | IC50 [4]: 36 ± 2 µM; IC50 [5, 11]: 38 ± 1 µM
COc1cccc(/C=C/c2ccc([N+](=O)[O-])cc2[N+](=O)[O-])c1O [Compound 1b, (E)-2-hydroxy-3-methoxy-2′,4′-dinitrostilbene] | 182 °C | – | – | – | cell viability (in words) [2]: only minimally affected
COc1ccc(O)c(/C=C/c2ccc([N+](=O)[O-])cc2[N+](=O)[O-])c1 [Compound 1d, (E)-2-hydroxy-5-methoxy-2′,4′-dinitrostilbene] | 168 °C | 18 ± 3 µM | < 30% | 33 ± 2 µM | effect on microtubular network [7]: density of the microtubular network was decreased; IC50 [4]: 47 ± 1 µM; IC50 [5, 11]: 40 ± 2 µM
COc1cc(O)c(/C=C/c2ccc([N+](=O)[O-])cc2[N+](=O)[O-])cc1OC [Compound 1f, (E)-2-hydroxy-4,5-dimethoxy-2′,4′-dinitrostilbene] | 221 °C | – | – | – | cell viability (in words) [2]: only minimally affected
O=[N+]([O-])c1ccc(/C=C/c2ccc(O)cc2O)c([N+](=O)[O-])c1 [Compound 1i, (E)-2,4-dihydroxy-2′,4′-dinitrostilbene] | 201 °C | 52 ± 2 µM | < 30% | 54 ± 2 µM | IC50 [4]: 69 ± 3 µM; IC50 [5, 11]: 41 ± 2 µM
